Like-named read-outs stand apart in the source and are kept apart here.
What was measured:
[1] = test system: 104 binding assays and 41 cell based and enzyme assays; assay: BioPrint general selectivity panel; settings: 1 μM
Method: (§1) General selectivity profiling was performed at Eurofins Pharma Discovery Services using the BioPrint® panel and reference database. The panel included 104 binding assays (non-peptide, peptide and nuclear receptors, ion channels and amine transporters) and 41 cell based and enzyme assays (including 10 kinases, 9 proteases and 5 phosphodiesterases) (S4 Table). More than 70% were human targets. Compound 4 was tested at a concentration of 1 μM in duplicate (10 μM for P-gp and CYP enzymes). The resulting bioactivity fingerprint was compared with a database of >2,500 BioPrint marketed drugs and reference compounds. IC50 values for selected activities were further characterized at 8 concentrations in duplicate.

PDE6 = PDE6 (Bos taurus, UniProt P11541+P23439); assay: BioPrint panel: PDE6; assay type: biochemical
PDE6, sequence (P11541 2-856): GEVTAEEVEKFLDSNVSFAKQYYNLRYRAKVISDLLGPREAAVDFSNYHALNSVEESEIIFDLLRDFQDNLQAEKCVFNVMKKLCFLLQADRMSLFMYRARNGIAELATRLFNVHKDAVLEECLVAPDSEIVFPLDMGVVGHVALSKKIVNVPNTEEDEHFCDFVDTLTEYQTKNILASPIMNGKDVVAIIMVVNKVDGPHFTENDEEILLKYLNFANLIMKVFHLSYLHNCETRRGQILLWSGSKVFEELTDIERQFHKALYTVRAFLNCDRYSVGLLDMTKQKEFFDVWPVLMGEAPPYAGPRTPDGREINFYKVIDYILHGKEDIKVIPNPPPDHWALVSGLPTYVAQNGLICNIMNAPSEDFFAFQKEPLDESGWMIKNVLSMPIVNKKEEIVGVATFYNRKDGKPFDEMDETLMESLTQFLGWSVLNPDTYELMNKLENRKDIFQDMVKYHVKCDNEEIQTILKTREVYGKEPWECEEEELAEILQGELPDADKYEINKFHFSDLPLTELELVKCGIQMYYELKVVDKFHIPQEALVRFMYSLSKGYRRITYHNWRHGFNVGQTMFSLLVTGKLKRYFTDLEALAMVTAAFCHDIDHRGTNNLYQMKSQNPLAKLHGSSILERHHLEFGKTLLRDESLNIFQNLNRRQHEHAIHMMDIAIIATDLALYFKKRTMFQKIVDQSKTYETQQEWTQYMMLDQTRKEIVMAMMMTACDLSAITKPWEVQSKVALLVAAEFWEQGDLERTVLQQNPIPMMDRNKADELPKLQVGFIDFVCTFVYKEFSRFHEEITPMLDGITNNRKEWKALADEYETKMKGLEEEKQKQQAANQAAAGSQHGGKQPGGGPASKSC
PDE6, sequence (P23439 2-850): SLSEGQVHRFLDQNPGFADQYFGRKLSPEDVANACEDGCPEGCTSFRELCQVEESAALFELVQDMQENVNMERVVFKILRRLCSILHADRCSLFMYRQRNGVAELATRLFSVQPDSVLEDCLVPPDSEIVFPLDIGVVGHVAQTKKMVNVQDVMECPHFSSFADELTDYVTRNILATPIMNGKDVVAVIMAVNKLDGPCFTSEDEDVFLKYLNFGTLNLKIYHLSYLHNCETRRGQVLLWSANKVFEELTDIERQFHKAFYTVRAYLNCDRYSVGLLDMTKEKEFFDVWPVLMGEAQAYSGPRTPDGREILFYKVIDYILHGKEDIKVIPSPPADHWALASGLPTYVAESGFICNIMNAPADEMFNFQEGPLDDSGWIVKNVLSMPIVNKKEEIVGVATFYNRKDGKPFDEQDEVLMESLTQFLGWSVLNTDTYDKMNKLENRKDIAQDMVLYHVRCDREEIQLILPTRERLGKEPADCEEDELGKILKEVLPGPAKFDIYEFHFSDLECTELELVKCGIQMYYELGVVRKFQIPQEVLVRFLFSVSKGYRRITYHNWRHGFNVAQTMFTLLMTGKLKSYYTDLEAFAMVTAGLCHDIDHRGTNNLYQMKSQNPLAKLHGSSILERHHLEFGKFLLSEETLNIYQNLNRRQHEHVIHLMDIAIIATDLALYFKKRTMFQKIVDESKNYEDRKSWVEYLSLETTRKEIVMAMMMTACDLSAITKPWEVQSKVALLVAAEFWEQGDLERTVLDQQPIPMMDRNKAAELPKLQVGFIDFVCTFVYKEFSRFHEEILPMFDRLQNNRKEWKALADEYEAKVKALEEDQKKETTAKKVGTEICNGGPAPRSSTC
PDE6, sequence (P04972 whole entry partner): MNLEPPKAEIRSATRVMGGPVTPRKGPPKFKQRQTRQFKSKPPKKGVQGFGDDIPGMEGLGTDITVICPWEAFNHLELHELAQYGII
Method: as §1

A1 = target: T1, A1 (Homo sapiens, UniProt P30542); assay: BioPrint panel: A1 (h) (agonist); assay type: binding; settings: 1 micromolar, read-out: percentage of inhibition of activity
T1 construct: purchased Eurofins Pharma Discovery Services (KinaseProfiler; Cerep BioPrint panel)
Text: (§2) Supplement pone.0189247.s004.xlsx, sheet "Bioprint Selectivity Panel" | column: %

A2B = target: T2, A2B (Homo sapiens, UniProt P29275); assay: BioPrint panel: A2B (h) (antagonist); assay type: binding; settings: 1 micromolar, read-out: percentage of inhibition of activity
T2 construct: purchased Eurofins Pharma Discovery Services (KinaseProfiler; Cerep BioPrint panel)
T2 sequence (P29275 whole entry): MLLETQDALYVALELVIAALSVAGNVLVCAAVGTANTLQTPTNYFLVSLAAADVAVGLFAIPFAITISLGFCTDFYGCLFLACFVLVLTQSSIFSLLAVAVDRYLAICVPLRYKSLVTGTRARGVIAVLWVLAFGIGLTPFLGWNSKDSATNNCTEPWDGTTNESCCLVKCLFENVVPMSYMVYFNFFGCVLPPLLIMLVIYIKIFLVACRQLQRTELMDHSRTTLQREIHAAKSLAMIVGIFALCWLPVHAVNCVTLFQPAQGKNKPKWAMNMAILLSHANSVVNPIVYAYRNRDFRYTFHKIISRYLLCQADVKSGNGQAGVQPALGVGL
Text: as §2

beta 1 = target: T3, beta 1 (Homo sapiens, UniProt P08588); assay: BioPrint panel: beta 1 (h) (agonist); assay type: binding; settings: 1 micromolar, read-out: percentage of inhibition of activity
T3 construct: purchased Eurofins Pharma Discovery Services (KinaseProfiler; Cerep BioPrint panel)
Text: as §2

AT1 = target: T4, AT1 (Homo sapiens, UniProt P30556); assay: BioPrint panel: AT1 (h) (antagonist); assay type: binding; settings: 1 micromolar, read-out: percentage of inhibition of activity
T4 construct: purchased Eurofins Pharma Discovery Services (KinaseProfiler; Cerep BioPrint panel)
Text: as §2

CB1 = target: T5, CB1 (Homo sapiens, UniProt P21554); assay: BioPrint panel: CB1 (h) (agonist); assay type: binding; settings: 1 micromolar, read-out: percentage of inhibition of activity
T5 construct: purchased Eurofins Pharma Discovery Services (KinaseProfiler; Cerep BioPrint panel)
Text: as §2

CB2 = target: T6, CB2 (Homo sapiens, UniProt P34972); assay: BioPrint panel: CB2 (h) (agonist); assay type: binding; settings: 1 micromolar, read-out: percentage of inhibition of activity
T6 construct: purchased Eurofins Pharma Discovery Services (KinaseProfiler; Cerep BioPrint panel)
Text: as §2

CRF1 = target: T7, CRF1 (Homo sapiens, UniProt P34998); assay: BioPrint panel: CRF1 (h) (agonist); assay type: binding; settings: 1 micromolar, read-out: percentage of inhibition of activity
T7 construct: purchased Eurofins Pharma Discovery Services (KinaseProfiler; Cerep BioPrint panel)
T7 sequence (P34998 24-415): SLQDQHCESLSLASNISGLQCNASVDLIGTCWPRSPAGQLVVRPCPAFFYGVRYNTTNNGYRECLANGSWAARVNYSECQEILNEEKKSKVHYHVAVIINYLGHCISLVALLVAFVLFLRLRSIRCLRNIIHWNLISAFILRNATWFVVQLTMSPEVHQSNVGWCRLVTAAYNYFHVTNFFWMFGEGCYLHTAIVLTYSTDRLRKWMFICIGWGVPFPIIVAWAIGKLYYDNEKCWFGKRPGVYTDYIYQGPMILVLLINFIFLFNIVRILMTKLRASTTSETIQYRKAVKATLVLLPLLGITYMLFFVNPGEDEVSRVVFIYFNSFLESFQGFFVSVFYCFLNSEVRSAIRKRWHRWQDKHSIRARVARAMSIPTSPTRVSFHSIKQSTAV
Text: as §2

ETB = target: T8, ETB (Homo sapiens, UniProt P24530); assay: BioPrint panel: ETB (h) (agonist); assay type: binding; settings: 1 micromolar, read-out: percentage of inhibition of activity
T8 construct: purchased Eurofins Pharma Discovery Services (KinaseProfiler; Cerep BioPrint panel)
T8 sequence (P24530 27-442): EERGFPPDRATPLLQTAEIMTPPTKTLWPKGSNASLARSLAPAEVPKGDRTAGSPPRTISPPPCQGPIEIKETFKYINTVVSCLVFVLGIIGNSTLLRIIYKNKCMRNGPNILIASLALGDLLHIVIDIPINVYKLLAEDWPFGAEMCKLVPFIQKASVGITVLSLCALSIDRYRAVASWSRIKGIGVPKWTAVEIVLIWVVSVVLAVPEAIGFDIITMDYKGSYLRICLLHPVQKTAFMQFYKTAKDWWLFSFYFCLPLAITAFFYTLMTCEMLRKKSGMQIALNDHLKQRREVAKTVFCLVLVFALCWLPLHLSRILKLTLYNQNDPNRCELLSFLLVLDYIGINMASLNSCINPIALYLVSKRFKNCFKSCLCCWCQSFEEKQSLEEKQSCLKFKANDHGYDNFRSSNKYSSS
Text: as §2

kainate = assay: BioPrint panel: kainate (agonist); assay type: binding; settings: 1 micromolar
Text: as §2

H3 = target: T9, H3 (Homo sapiens, UniProt Q9Y5N1); assay: BioPrint panel: H3 (h) (agonist); assay type: binding; settings: 1 micromolar, read-out: percentage of inhibition of activity
T9 construct: purchased Eurofins Pharma Discovery Services (KinaseProfiler; Cerep BioPrint panel)
Text: as §2

MC4 = target: T10, MC4 (Homo sapiens, UniProt P32245); assay: BioPrint panel: MC4 (h) (agonist); assay type: binding; settings: 1 micromolar, read-out: percentage of inhibition of activity
T10 construct: purchased Eurofins Pharma Discovery Services (KinaseProfiler; Cerep BioPrint panel)
Text: as §2

delta 2 (DOP) = target: T11, delta 2 (DOP) (Homo sapiens, UniProt P41143); assay: BioPrint panel: delta 2 (DOP) (h) (agonist); assay type: binding; settings: 1 micromolar, read-out: percentage of inhibition of activity
T11 construct: purchased Eurofins Pharma Discovery Services (KinaseProfiler; Cerep BioPrint panel)
T11 sequence (P41143 whole entry): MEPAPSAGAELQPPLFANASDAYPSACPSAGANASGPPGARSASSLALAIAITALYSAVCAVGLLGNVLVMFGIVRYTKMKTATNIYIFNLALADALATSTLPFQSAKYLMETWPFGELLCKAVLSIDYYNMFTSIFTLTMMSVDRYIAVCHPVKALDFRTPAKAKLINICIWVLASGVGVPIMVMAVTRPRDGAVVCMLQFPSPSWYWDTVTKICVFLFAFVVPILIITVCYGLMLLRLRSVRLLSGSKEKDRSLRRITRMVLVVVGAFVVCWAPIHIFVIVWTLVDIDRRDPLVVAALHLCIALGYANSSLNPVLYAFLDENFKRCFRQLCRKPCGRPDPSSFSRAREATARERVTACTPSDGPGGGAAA
Text: as §2

FP = target: T12, FP (Homo sapiens, UniProt P43088); assay: BioPrint panel: FP (h) (agonist); assay type: binding; settings: 1 micromolar, read-out: percentage of inhibition of activity
T12 construct: purchased Eurofins Pharma Discovery Services (KinaseProfiler; Cerep BioPrint panel)
Text: as §2

IP (PGI2) = target: T13, IP (PGI2) (Homo sapiens, UniProt P43119); assay: BioPrint panel: IP (PGI2) (h) (agonist); assay type: binding; settings: 1 micromolar, read-out: percentage of inhibition of activity
T13 construct: purchased Eurofins Pharma Discovery Services (KinaseProfiler; Cerep BioPrint panel)
Text: as §2

LXRbeta = target: T14, LXRbeta (Homo sapiens, UniProt P55055); assay: BioPrint panel: LXRbeta (h) (agonist); assay type: binding; settings: 1 micromolar, read-out: percentage of inhibition of activity
T14 construct: purchased Eurofins Pharma Discovery Services (KinaseProfiler; Cerep BioPrint panel)
Text: as §2

5-HT1A = target: T15, 5-HT1A (Homo sapiens, UniProt P08908); assay: BioPrint panel: 5-HT1A (h) (agonist); assay type: binding; settings: 1 micromolar, read-out: percentage of inhibition of activity
T15 construct: purchased Eurofins Pharma Discovery Services (KinaseProfiler; Cerep BioPrint panel)
Text: as §2

5-HT2A = target: T16, 5-HT2A (Homo sapiens, UniProt P28223); assay: BioPrint panel: 5-HT2A (h) (agonist); assay type: binding; settings: 1 micromolar, read-out: percentage of inhibition of activity
T16 construct: purchased Eurofins Pharma Discovery Services (KinaseProfiler; Cerep BioPrint panel)
Text: as §2

5-HT2B = target: T17, 5-HT2B (Homo sapiens, UniProt P41595); assay: BioPrint panel: 5-HT2B (h) (agonist); assay type: binding; settings: 1 micromolar, read-out: percentage of inhibition of activity
T17 construct: purchased Eurofins Pharma Discovery Services (KinaseProfiler; Cerep BioPrint panel)
Text: as §2

5-HT2C = target: T18, 5-HT2C (Homo sapiens, UniProt P28335); assay: BioPrint panel: 5-HT2C (h) (agonist); assay type: binding; settings: 1 micromolar, read-out: percentage of inhibition of activity
T18 construct: purchased Eurofins Pharma Discovery Services (KinaseProfiler; Cerep BioPrint panel)
Text: as §2

5-HT3 = target: T19, 5-HT3 (Homo sapiens, UniProt P46098); assay: BioPrint panel: 5-HT3 (h) (antagonist); assay type: binding; settings: 1 micromolar, read-out: percentage of inhibition of activity
T19 construct: purchased Eurofins Pharma Discovery Services (KinaseProfiler; Cerep BioPrint panel)
Text: as §2

5-HT7 = target: T20, 5-HT7 (Homo sapiens, UniProt P34969); assay: BioPrint panel: 5-HT7 (h) (agonist); assay type: binding; settings: 1 micromolar, read-out: percentage of inhibition of activity
T20 construct: purchased Eurofins Pharma Discovery Services (KinaseProfiler; Cerep BioPrint panel)
Text: as §2

sigma (non-selective) = assay: BioPrint panel: sigma (non-selective) (h) (agonist); assay type: binding, human; settings: 1 micromolar
Text: as §2

sst1 = target: T21, sst1 (Homo sapiens, UniProt P30872); assay: BioPrint panel: sst1 (h) (agonist); assay type: binding; settings: 1 micromolar, read-out: percentage of inhibition of activity
T21 construct: purchased Eurofins Pharma Discovery Services (KinaseProfiler; Cerep BioPrint panel)
T21 sequence (P30872 whole entry): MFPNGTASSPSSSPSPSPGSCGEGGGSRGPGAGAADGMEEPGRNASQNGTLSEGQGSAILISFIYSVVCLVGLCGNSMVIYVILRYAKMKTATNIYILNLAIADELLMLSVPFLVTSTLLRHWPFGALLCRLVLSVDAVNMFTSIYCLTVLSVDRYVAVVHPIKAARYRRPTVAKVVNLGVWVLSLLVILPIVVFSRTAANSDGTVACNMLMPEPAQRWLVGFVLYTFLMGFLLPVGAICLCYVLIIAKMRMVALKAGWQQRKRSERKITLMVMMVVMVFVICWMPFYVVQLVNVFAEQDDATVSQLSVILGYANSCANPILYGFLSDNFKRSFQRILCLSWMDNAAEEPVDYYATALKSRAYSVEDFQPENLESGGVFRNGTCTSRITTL
Text: as §2

ERalpha = target: T22, ERalpha (Homo sapiens, UniProt P03372); assay: BioPrint panel: ERalpha (h) (agonist fluoligand); assay type: binding; settings: 1 micromolar, read-out: percentage of inhibition of activity
T22 construct: purchased Eurofins Pharma Discovery Services (KinaseProfiler; Cerep BioPrint panel)
Text: as §2

VPAC1 (VIP1) = target: T23, VPAC1 (VIP1) (Homo sapiens, UniProt P32241); assay: BioPrint panel: VPAC1 (VIP1) (h) (agonist); assay type: binding; settings: 1 micromolar, read-out: percentage of inhibition of activity
T23 construct: purchased Eurofins Pharma Discovery Services (KinaseProfiler; Cerep BioPrint panel)
T23 sequence (P32241 31-457): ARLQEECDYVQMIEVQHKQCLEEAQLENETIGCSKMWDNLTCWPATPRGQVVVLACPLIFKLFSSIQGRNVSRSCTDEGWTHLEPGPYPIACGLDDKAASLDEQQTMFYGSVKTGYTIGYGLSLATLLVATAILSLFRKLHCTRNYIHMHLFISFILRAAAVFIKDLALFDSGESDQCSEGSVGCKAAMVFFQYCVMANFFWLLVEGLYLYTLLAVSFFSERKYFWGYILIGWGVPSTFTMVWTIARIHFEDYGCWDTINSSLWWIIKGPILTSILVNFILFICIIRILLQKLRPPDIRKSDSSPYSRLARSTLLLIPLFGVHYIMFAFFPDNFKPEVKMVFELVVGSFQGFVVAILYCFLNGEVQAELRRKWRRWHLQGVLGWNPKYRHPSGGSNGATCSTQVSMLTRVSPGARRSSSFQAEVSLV
Text: as §2

COX1 = target: T24, COX1 (Homo sapiens, UniProt P23219); assay: BioPrint panel: COX1 (h); assay type: biochemical; settings: 1 micromolar, read-out: percentage of inhibition of activity
T24 construct: purchased Eurofins Pharma Discovery Services (KinaseProfiler; Cerep BioPrint panel)
Text: as §2

COX2 = target: T25, COX2 (Homo sapiens, UniProt P35354); assay: BioPrint panel: COX2 (h); assay type: biochemical; settings: 1 micromolar, read-out: percentage of inhibition of activity
T25 construct: purchased Eurofins Pharma Discovery Services (KinaseProfiler; Cerep BioPrint panel)
Text: as §2

PDE2A1 = PDE2A1 (Homo sapiens, UniProt O00408); assay: BioPrint panel: PDE2A1 (h); assay type: biochemical; settings: 1 micromolar, read-out: percentage of inhibition of activity
Text: as §2

MMP-9 = target: T26, MMP-9 (Homo sapiens, UniProt P14780); assay: BioPrint panel: MMP-9 (h); assay type: biochemical; settings: 1 micromolar, read-out: percentage of inhibition of activity
T26 construct: purchased Eurofins Pharma Discovery Services (KinaseProfiler; Cerep BioPrint panel)
T26 sequence (P14780 94-707): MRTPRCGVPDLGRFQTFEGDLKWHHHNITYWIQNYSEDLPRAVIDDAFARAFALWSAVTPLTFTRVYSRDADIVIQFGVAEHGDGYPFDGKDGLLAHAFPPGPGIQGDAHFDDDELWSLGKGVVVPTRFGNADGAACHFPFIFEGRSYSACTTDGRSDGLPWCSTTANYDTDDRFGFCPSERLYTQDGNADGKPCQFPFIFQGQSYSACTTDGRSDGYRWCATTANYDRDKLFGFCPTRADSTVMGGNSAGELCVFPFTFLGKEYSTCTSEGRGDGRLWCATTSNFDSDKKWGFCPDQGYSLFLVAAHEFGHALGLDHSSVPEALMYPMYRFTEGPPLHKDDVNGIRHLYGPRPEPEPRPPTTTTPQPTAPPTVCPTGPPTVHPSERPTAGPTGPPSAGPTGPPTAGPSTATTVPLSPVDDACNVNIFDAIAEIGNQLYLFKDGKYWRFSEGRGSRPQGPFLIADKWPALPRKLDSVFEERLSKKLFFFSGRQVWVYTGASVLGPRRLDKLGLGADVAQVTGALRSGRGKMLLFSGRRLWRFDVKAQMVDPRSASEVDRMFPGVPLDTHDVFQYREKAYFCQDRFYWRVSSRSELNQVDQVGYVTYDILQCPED
Text: as §2

Abl = target: T27, Abl (Homo sapiens, UniProt P00519); assay: BioPrint panel: Abl kinase (h); assay type: biochemical; settings: 1 micromolar, read-out: percentage of inhibition of activity
T27 construct: purchased Eurofins Pharma Discovery Services (KinaseProfiler; Cerep BioPrint panel)
Text: as §2

CDK2 (cycA) = target: T28, CDK2 (cycA) (Homo sapiens, UniProt P24941); assay: BioPrint panel: CDK2 (h) (cycA); assay type: biochemical; settings: 1 micromolar, read-out: percentage of inhibition of activity
T28 construct: purchased Eurofins Pharma Discovery Services (KinaseProfiler; Cerep BioPrint panel)
Text: as §2

Guanylyl cylcase = assay: BioPrint panel: Guanylyl cylcase (activator); assay type: biochemical; settings: 1 micromolar
Text: as §2

SMILES: Cn1cc(-c2cccc(-c3nc(C(=O)NC4C5CC6CC4CC(O)(C6)C5)c(N)nc3N)c2)cn1 (centres unmarked) [compound 4]
- Inhibition of 129 additional activities [1]: less than 50%
- inhibition at 1 µM (PDE6; 1 μM, read-out: inhibition of PDE6): 55%
- inhibition at 1 µM (PDE6; 1 micromolar, PDE6 (non-selective), read-out: percentage of inhibition of activity): 55.6%
- inhibition at 1 µM (A1): -11.2%
- inhibition at 1 µM (A2B): -3%
- inhibition at 1 µM (beta 1): -1.8%
- inhibition at 1 µM (AT1): -6.4%
- inhibition at 1 µM (CB1): 3.7%
- inhibition at 1 µM (CB2): -12.2%
- inhibition at 1 µM (CRF1): -37%
- inhibition at 1 µM (ETB): -6.7%
- percentage of inhibition of activity (kainate): 4.1%
- inhibition at 1 µM (H3): 7.4%
- inhibition at 1 µM (MC4): -5.1%
- inhibition at 1 µM (delta 2 (DOP)): -0.2%
- inhibition at 1 µM (FP): 4.8%
- inhibition at 1 µM (IP (PGI2)): -5.1%
- inhibition at 1 µM (LXRbeta): 4.1%
- inhibition at 1 µM (5-HT1A): -1.1%
- inhibition at 1 µM (5-HT2A): 2.4%
- inhibition at 1 µM (5-HT2B): -7.9%
- inhibition at 1 µM (5-HT2C): -17.7%
- inhibition at 1 µM (5-HT3): -0.4%
- inhibition at 1 µM (5-HT7): -4.3%
- percentage of inhibition of activity (sigma (non-selective)): 5.9%
- inhibition at 1 µM (sst1): 1.2%
- inhibition at 1 µM (ERalpha): -10.3%
- inhibition at 1 µM (VPAC1 (VIP1)): -4.6%
- inhibition at 1 µM (COX1): -4.3%
- inhibition at 1 µM (COX2): -12.1%
- inhibition at 1 µM (PDE2A1): 6.7%
- inhibition at 1 µM (MMP-9): -4.4%
- inhibition at 1 µM (Abl): -4.6%
- inhibition at 1 µM (CDK2 (cycA)): -7.9%
- percentage of inhibition of activity (Guanylyl cylcase): 0%

Reference: publication PMC5761851, “Application of a phenotypic drug discovery strategy to identify biological and chemical starting points for inhibition of TSLP production in lung epithelial cells” (PLoS ONE, 2018)
